Assay results from patent publication US20140045824A1, “METHOD FOR PRODUCING COMPLEX CRYSTAL AND METHOD FOR SCREENING COMPLEX CRYSTAL” (priority 2011, published 2014).

Columns and labels:
Type in all cases: physicochemical
[1] = Cocrystal screening by heat melting 1-menthol (Example 2), powder X-ray diffraction and thermal analysis; design: key: A cocrystal was completely formed.; B: A mixture of a cocrystal and the host compound or guest compound was formed.; C: A cocrystal was not formed (a mixture of the host compound and the guest compound was formed); details: host carbamazepine, equimolar guest, 1-menthol added, 10 hours at 80° C.
Protocol: Carbamazepine and a guest compound shown in Table 4 in an equimolar amount to carbamazepine were weighed and mixed using an agate mortar. […] Thereafter, the obtained mixed powder of carbamazepine, the guest compound, and 1-menthol was heated for 10 hours in an oven at 80° C., and the obtained solids were subjected to powder X-ray diffraction measurement and thermal analysis.

[2] = Cocrystal screening by slurry method (Comparative Examples 4-1 to 4-6), powder X-ray diffraction; design: key: A cocrystal was completely formed.; B: A mixture of a cocrystal and the host compound or guest compound was formed.; C: A cocrystal was not formed (a mixture of the host compound and the guest compound was formed); details: host carbamazepine
Protocol: (§1) 3 mg (0.0127 mmoles) of carbamazepine and a guest compound shown in Table 4 in an equimolar amount (0.0127 mmoles) to carbamazepine were weighed and put into a glass container, to which was then added 60 μL of water. These were shaken at room temperature for 7 days, and the obtained residues were subjected to powder X-ray diffraction measurement. 3 mg (0.0127 mmoles) of carbamazepine and a guest compound shown in Table 4 in an equimolar amount (0.0127 mmoles) to carbamazepine were weighed and put into a glass container, to which was then added 60 μL of ethanol. These were shaken at room temperature for 7 days, and the obtained residues were subjected to powder X-ray diffraction measurement. 3 mg (0.0127 mmoles) of carbamazepine and a guest compound shown in Table 4 in an equimolar amount (0.0127 mmoles) to carbamazepine were weighed and put into a glass container, to which was then added 60 μL of tetrahydrofuran. These were shaken at room temperature for 7 days, and the obtained residues were subjected to powder X-ray diffraction measurement. 3 mg (0.0127 mmoles) of carbamazepine and a guest compound shown in Table 4 in an equimolar amount (0.0127 mmoles) to carbamazepine were weighed and put into a glass container, to which was then added 60 μL of toluene. These were shaken at room temperature for 7 days, and the obtained residues were subjected to powder X-ray diffraction measurement. 3 mg (0.0127 mmoles) of carbamazepine and a guest compound shown in Table 4 in an equimolar amount (0.0127 mmoles) to carbamazepine were weighed and put into a glass container, to which was then added 60 μL of ethyl acetate. These were shaken at room temperature for 7 days, and the obtained residues were subjected to powder X-ray diffraction measurement. 3 mg (0.0127 mmoles) of carbamazepine and a guest compound shown in Table 4 in an equimolar amount (0.0127 mmoles) to carbamazepine were weighed and put into a glass container, to which was then added 60 μL of acetone. These were shaken at room temperature for 7 days, and the obtained residues were subjected to powder X-ray diffraction measurement.

[3] = Cocrystal screening by mixing and grinding method (Comparative Example 5); design: key: A cocrystal was completely formed.; B: A mixture of a cocrystal and the host compound or guest compound was formed.; C: A cocrystal was not formed (a mixture of the host compound and the guest compound was formed); details: host carbamazepine, equimolar guest, mixed/ground in agate mortar
Description: (§2) Carbamazepine and a guest compound shown in Table 4 in an equimolar amount to carbamazepine were weighed and mixed using an agate mortar. At that time, particles having a large size to an extent that they could be distinguished through visual inspection were grinded on the agate mortar. The obtained solids were subjected to powder X-ray diffraction measurement and thermal analysis.

[4] = Cocrystal screening by heating method without menthol (Comparative Example 6); design: key: A cocrystal was completely formed.; B: A mixture of a cocrystal and the host compound or guest compound was formed.; C: A cocrystal was not formed (a mixture of the host compound and the guest compound was formed); details: host carbamazepine, equimolar guest, no menthol, 4 hours at 80° C.
Protocol: as §2, with “10 mg of this mixed powder was weighed and put into a test tube and heated for 4 hours in an oven at 80° C., and the” for “The”

[5] = Cocrystal screening by slurry method (Comparative Examples 4-1 to 4-6), powder X-ray diffraction; design: key: A cocrystal was completely formed.; B: A mixture of a cocrystal and the host compound or guest compound was formed.; C: A cocrystal was not formed (a mixture of the host compound and the guest compound was formed).; —: A residue was not obtained; details: host carbamazepine, slurry in tetrahydrofuran, room temperature 7 days
Protocol: as §1

## O=C(O)CC(=O)O [Malonic acid]
[1]
  Cocrystal formation, Example 2: A
[2]; slurry in acetone, room temperature 7 days
  Cocrystal formation, Comparative Example 4-6: C
[2]; slurry in ethanol, room temperature 7 days
  Cocrystal formation, Comparative Example 4-2: C
[2]; slurry in ethyl acetate, room temperature 7 days
  Cocrystal formation, Comparative Example 4-5: A
[2]; slurry in toluene, room temperature 7 days
  Cocrystal formation, Comparative Example 4-4: B
[2]; slurry in water, room temperature 7 days
  Cocrystal formation, Comparative Example 4-1: C
[2]; slurry summary: A if a cocrystal was formed in any one of Comparative Examples 4-1 to 4-6
  Cocrystal formation, Comparative Example 4*: A
[3]
  Cocrystal formation, Comparative Example 5: C
[4]
  Cocrystal formation, Comparative Example 6: B
[5]
  Cocrystal formation, Comparative Example 4-3: —
